From ChEMBL document CHEMBL1201862, “PubChem BioAssay data set” (2004)
Each block holds one molecule with its values, some of them ahead of it. Active and inactive are the calls of the source.

How the values were obtained:
[1] = biological target: Heat shock protein HSP 90-alpha (Homo sapiens, UniProt P07900); type: functional, organism-based
[2] = biological target: T1, DNA repair and recombination protein RAD54-like (Homo sapiens, UniProt Q92698); test: RAD54 Holliday junction migration blockers – biochemical, fluorescence, cherry-picked samples, dose series, confirmation (AID 651657); type: functional
T1 sequence (Q92698 whole entry): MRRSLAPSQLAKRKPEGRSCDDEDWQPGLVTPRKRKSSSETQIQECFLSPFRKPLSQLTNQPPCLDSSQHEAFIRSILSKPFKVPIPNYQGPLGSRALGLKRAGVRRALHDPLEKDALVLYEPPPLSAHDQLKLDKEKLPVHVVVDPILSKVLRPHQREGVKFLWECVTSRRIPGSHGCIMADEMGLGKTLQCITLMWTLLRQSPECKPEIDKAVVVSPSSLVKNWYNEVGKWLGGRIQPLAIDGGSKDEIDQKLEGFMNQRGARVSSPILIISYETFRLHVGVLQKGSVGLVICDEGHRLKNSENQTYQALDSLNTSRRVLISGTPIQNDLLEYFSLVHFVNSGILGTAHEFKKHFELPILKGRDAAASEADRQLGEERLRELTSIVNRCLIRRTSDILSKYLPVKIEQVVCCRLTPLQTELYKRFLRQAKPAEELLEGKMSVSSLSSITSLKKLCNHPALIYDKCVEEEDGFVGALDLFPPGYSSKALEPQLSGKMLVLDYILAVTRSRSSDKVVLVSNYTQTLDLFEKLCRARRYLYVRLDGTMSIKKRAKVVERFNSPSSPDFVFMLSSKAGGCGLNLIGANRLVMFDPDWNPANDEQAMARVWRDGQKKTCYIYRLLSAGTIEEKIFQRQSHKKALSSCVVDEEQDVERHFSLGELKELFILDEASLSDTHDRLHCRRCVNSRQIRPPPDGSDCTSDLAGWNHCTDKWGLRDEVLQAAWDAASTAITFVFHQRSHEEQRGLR

CHO-K1 = test: (§1) Counterscreen for antagonists of the orexin 1 receptor (OX1R; HCRTR1): Homogeneous time resolved fluorescence (HTRF)-based cell-based dose response assay to identify antagonists of the parental CHO-K1 cell line. [Related pubchem assays (depositor defined):AID434989, AID435008, AID463079, AID485270, AID492963, AID492964, AID492965, AID493232, AID504699, AID504701]; type: functional; conditions: Cricetulus griseus
[3] = biological target: T2, Orexin/Hypocretin receptor type 1 (Homo sapiens, UniProt O43613); test: Homogeneous Time Resolved Fluorescence (HTRF)-based cell-based high throughput dose response assay for antagonists of the orexin 1 receptor (OX1R; HCRTR1). [Related pubchem assays (depositor defined):AID434989, AID435008, AID463079, AID485270, AID492963, AID492964, AID492965, AID493232, AID504717, AID504718]; type: functional
T2 sequence (O43613 whole entry): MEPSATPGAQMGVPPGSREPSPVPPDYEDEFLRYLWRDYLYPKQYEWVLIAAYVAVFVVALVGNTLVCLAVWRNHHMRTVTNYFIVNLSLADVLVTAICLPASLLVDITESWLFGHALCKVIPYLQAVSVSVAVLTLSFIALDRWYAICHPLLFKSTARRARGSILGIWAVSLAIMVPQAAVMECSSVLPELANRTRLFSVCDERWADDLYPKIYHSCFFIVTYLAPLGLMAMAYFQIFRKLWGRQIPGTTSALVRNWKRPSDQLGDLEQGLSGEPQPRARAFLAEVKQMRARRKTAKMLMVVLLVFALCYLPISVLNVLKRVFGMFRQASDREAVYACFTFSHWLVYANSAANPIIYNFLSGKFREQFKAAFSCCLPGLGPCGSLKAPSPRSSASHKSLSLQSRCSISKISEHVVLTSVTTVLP

Orexin receptor type 2 [4] = biological target: T3, Orexin receptor type 2 (Homo sapiens, UniProt O43614); test: Counterscreen assay for antagonists of the orexin 1 receptor (OX1R; HCRTR1): Fluorescence-based cell-based dose response assay for antagonists of the orexin 2 receptor (OX2R; HCRTR2), run by assay provider.; type: functional
T3 sequence (O43614 whole entry): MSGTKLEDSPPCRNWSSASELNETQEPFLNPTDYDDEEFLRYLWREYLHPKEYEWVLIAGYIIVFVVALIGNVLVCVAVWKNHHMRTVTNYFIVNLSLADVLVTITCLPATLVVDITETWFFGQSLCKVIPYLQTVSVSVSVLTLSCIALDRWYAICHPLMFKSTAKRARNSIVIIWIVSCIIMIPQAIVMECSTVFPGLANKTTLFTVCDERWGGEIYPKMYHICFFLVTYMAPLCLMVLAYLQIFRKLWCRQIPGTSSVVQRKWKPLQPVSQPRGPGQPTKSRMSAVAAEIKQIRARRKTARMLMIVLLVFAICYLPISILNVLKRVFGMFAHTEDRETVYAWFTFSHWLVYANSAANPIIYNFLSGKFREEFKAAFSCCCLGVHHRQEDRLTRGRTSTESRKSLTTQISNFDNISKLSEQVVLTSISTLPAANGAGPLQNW

[5] = as §1, with “Fluorescence-based” for “Homogeneous time resolved fluorescence (HTRF)-based”, “cell-based high throughput” for “cell-based”, “CHO” for “CHO-K1”; type: functional
Orexin receptor type 2 [6] = biological target: T3, Orexin receptor type 2; test: Counterscreen assay for antagonists of the orexin 1 receptor (OX1R; HCRTR1): Homogeneous Time Resolved Fluorescence (HTRF)-based cell-based dose response assay for antagonists of the orexin 2 receptor (OX2R; HCRTR2), run by assay provider.; type: functional
[7] = biological target: T2, Orexin/Hypocretin receptor type 1; test: Fluorescence-based cell-based high throughput dose response assay for antagonists of the orexin 1 receptor (OX1R; HCRTR1). [Related pubchem assays (depositor defined):AID434989, AID435008, AID463079, AID485270, AID492963, AID492964, AID492965, AID493232, AID504717, AID504718]; type: functional
[8] = biological target: T4, Hepatocyte nuclear factor 4-alpha (Homo sapiens, UniProt P41235); type: functional, cell-based;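 note: biochemical luminescence-based dose-response counterscreen measuring inhibition of HNF4 dimerization, run alongside a screen for blockers of ABHD5–perilipin-5 interaction; split luciferase complementation of HNF4 fusion proteins in cell lysate measuring dimerization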
T4 sequence (P41235 whole entry): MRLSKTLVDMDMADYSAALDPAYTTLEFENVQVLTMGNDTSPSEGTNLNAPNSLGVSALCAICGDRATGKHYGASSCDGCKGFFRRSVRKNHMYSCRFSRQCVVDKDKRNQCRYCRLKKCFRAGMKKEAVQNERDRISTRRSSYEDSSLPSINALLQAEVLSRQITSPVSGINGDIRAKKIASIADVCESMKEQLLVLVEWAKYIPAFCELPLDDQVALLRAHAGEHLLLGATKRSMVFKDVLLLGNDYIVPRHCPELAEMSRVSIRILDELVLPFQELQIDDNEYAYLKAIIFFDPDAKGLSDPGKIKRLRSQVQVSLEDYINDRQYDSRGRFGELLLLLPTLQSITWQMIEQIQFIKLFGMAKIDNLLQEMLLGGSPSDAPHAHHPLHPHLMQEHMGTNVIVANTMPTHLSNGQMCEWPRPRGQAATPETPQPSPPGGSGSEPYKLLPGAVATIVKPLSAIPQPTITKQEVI

Vero = test: viability loss in Vero cells – cell-based, plate reader, cherry-pick samples, cytotoxicity control, dose response (AID 687020); type: functional; conditions: Chlorocebus sabaeus

Compound: Cc1c(C(=O)NCCSCc2cccc(C(F)(F)F)c2)cnn1-c1ccc(Cl)cc1
- AC50 [1]: 7.25 µM (active)

Compound: c1c[nH]c(CN2CCN(Cc3ncc[nH]3)CC2)n1
- AC50 [2]: 63.3 µM (active)

Compound: CC(=C/c1ccccc1)/C=C1/SC(N2CCOCC2)=NC1=O
- IC50 (CHO-K1): 40.7 µM (inactive)
- IC50 [3]: 0.51 µM (active)
- IC50 (Orexin receptor type 2 [4]): > 88.8 µM (inactive)
- IC50 [5]: > 49.8 µM (inactive)
- IC50 (Orexin receptor type 2 [6]): 26 µM (inactive)
- IC50 [7]: 3.82 µM (active)

Compound: Cc1c(C(=O)NCc2cccnc2)oc2ccc(S(=O)(=O)N3CC(C)CC(C)C3)cc12 (stereo unspecified)
- AC50 (Vero): 32.4 µM (active)

More lines, now with the values ahead:

- IC50 [8]: 4 µM (active)
Compound: Cc1ccc(O)c(C(=O)C=Cc2ccccc2)c1

- IC50 [8]: 9.98 µM (active)
Compound: N#Cc1ccc(C(C(=O)Nc2ccc3c(c2)OCCO3)n2c(=O)c(-c3ccco3)nc3ccccc32)cc1 (stereo unspecified)
